Data taken from patent US10392379B2, “Hepatitis B core protein modulators” (Assembly Biosciences, Inc., priority 2015, dated 2019).

Columns and labels:
[1] = system: AD38 cells; experiment: Viability of AD38 cells (Promega CellTiter-Glo); assay type: cell-based; conditions: 10 μM compound, 6 days, DMSO controls = 100%
Protocol: (§1) AD38 cells were then re-suspended with 10 mL of Treatment Medium and counted. Wells of a collagen coated 96-well NUNC microtiter plate were seeded at 50,000/well in 180 μL of Treatment Medium, and 20 μL of in treatment media with either 10% DMSO (Control) or a 10× solution of compound in 10% DMSO was added. Plates were incubated for 6 days at 37° C.
At the end of compound treatment period cell viability was assessed using a Promega CellTiter-Glo protocol. All supernatant was removed the previously treated 96-well microtiter plate, and 50 μL Tetracycline-free treatment medium (DMEM/F12 (1:1), 1× Pen/step (cat#: 30-002-CL, Mediatech, Inc), with 2% FBS, Tet-system approved (cat#: 631106, Clontech), and 1% DMSO was added back to each well. Another 50 μL of CellTiter-Glo reagent solution (Promega, G7573) was then added at room temperature and the contents mixed for 2 minutes on an orbital shaker to induce cell lysis. This was followed by incubation at room temperature for 10 minutes to stabilize the luminescent signal. The luminescence was recorded for 0.2 seconds per well on a Tecan multimode platereader (Infinite M1000 pro). The luminescent signal from each well was normalized against that of untreated (DMSO) control wells. All results in Table 3 were reported with percent viability (with controls being 100%).

[2] = system: HBV; experiment: Viral load production in AD38 cells by quantitative PCR of the core sequence; assay type: cell-based; conditions: Hepatitis B virus, 144 h, 10 μM compound, 6 days, supernatant qPCR, relative to DMSO control, read-out: AD38 Viral Load (%) (VL with cmpd/VL in DMSO control) at 10 μM
Protocol: as §1
Viral load production was assayed by quantitative PCR of the core sequence. […] The PCR mixture was incubated at 45° C. for 5 minutes, then 95° C. for 10 min, followed by 40 cycles of 10 seconds at 95° C. and 20 seconds at 60° C. Viral load was quantitated against known standards by using ViiA™ 7 Software. Viral load in the supernatant from wells with treated cells were compared against viral load in supernatant from DMSO control wells (≥3 per plate).

| SMILES | AD38 Viability Normalized Result (cmpd/DMSO %) at 10 μM [1] [%] | activity at 10 µM [2] [%] |
| --- | --- | --- |
| COc1ccc(Cc2ccc(CNC(=O)c3ccc4c(c3)NC(=O)c3ccccc3O4)cn2)cc1 [Compound 837-A, N-((6-(4-methoxybenzyl)pyridin-3-yl)methyl)-11-oxo-10, 11-dihydrodibenzo[b,f][1, 4]oxazepine-8-carboxamide] | 105 | 5.6 |
| O=C(NCc1ccc(-c2ccccc2CO)nc1)c1ccc2c(c1)NC(=O)c1ccccc1S2(=O)=O [Compound 843] | 103 | 18.8 |
| O=C(NCc1cnc(-c2ccccc2CO)nc1)c1ccc2c(c1)NC(=O)c1ccccc1S2(=O)=O [Compound 844] | 103 | 10.2 |
| N#Cc1ccc(-c2ccc(CNC(=O)c3ccc4c(c3)NC(=O)c3ccccc3S4(=O)=O)cn2)cc1 [Compound 867] | 86 | 0.6 |
| NC(=O)c1ccc(-c2ccc(CNC(=O)c3ccc4c(c3)NC(=O)c3ccccc3S4(=O)=O)cn2)cc1 [Compound 868, N-((6-(4-carbamoylphenyl)pyridin-3-yl)methyl)-11-oxo-10,11-dihydrodibenzo[b,f][1,4]thiazepine-8-carboxamide 5,5-dioxide] | 103 | 27.7 |
| N#Cc1ccc(-c2ccc(CNC(=O)c3ccc4c(c3)NC(=O)c3ccccc3S4(=O)=O)nc2)cc1 [Compound 869, N-((5-(4-cyanophenyl)pyridin-2-yl)methyl)-11-oxo-10,11-dihydrodibenzo[b, f][1,4]thiazepine-8-carboxamide 5,5-dioxide] | 83 | 13.3 |
| NC(=O)c1ccc(-c2ccc(CNC(=O)c3ccc4c(c3)NC(=O)c3ccccc3S4(=O)=O)nc2)cc1 [Compound 870, N-((5-(4-carbamoylphenyl)pyridin-2-yl)methyl)-11-oxo-10, 11-dihydrodibenzo[b,f][1,4]thiazepine-8-carboxamide 5,5-dioxide] | 106 | 82.7 |
| N#Cc1ccc(-c2ncc(CNC(=O)c3ccc4c(c3)NC(=O)c3ccccc3S4(=O)=O)cn2)cc1 [Compound 871, N-((2-(4-cyanophenyl)pyrimidin-5-yl)methyl)-11-oxo-10, 11-dihydrodibenzo[b,f][1,4]thiazepine-8-carboxamide 5,5-dioxide] | 96 | 1.3 |
| NC(=O)c1ccc(-c2ncc(CNC(=O)c3ccc4c(c3)NC(=O)c3ccccc3S4(=O)=O)cn2)cc1 [Compound 872, N-((2-(4-carbamoylphenyl)pyrimidin-5-yl)methyl)-11-oxo-10, 11-dihydrodibenzo[b,f][1,4]thiazepine-8-carboxamide 5,5-dioxide] | 104 | 5.2 |
| O=C(NCc1ccc(C(F)(F)F)nc1)c1ccc2c(c1)NC(=O)c1ccccc1S2(=O)=O [Compound 875] | 108 | 26.1 |
| O=C(NCc1cnc(C(F)(F)F)nc1)c1ccc2c(c1)NC(=O)c1ccccc1S2(=O)=O [Compound 876] | 101 | 65.5 |
